One experiment is filed under the species Homo sapiens. Briefly: Angiogenic activity in HUVEC12 assessed as induction of cell proliferation at 10 uM after 24 hrs by MTT assay. In kind it is functional. For orientation: Tetrazolium assays rely on reduction of a dye to a coloured formazan, in cell work by metabolically active cells.
A further experiment relates to Chorioallantoic membrane. In words: Angiogenic activity in chick embryo chorioallantoic membrane at 10 uL/egg after 2 days. In kind it is functional, tissue-based. Conditions: Gallus gallus.

Consider four molecules from ChEMBL document CHEMBL1152705, “Synthesis and promotion angiogenesis effect of chrysin derivatives coupled to NO donors” (Bioorg Med Chem Lett, 2009).

Calls of active or inactive are those of the source. The rule behind the calls is not given here.

For `O=c1cc(-c2ccccc2)oc2cc(O)cc(O)c12`, in the experiment listed under Homo sapiens, the result was Active.

With `O=c1cc(-c2ccccc2)oc2cc(OCCCCCCO[N+](=O)[O-])cc(O)c12`, the outcome in the experiment on Chorioallantoic membrane and in the experiment listed under Homo sapiens was Active.

`O=c1cc(-c2ccccc2)oc2cc(OCCCCO[N+](=O)[O-])cc(O)c12`: the result with Chorioallantoic membrane and in the experiment filed under Homo sapiens was Active.

`O=c1cc(-c2ccccc2)oc2cc(OCCO[N+](=O)[O-])cc(O)c12`: the outcome with Chorioallantoic membrane and in the experiment filed under Homo sapiens was Active.
